From the NIST ThermoML archive (doi:10.1016/j.jct.2008.02.020)

Settings: Liquid, Buoyancy - hydrostatic balance with magnetic suspension - one sinker

CCCCCCCCC [nonane]
Settings | mass density [kg/m3]
293.15 K, 29978 kPa | 739.115
313.15 K, 98.73 kPa | 702.339
313.15 K, 1168.7 kPa | 703.323
313.15 K, 2131.9 kPa | 704.205
313.15 K, 3967.4 kPa | 705.852
313.15 K, 6162.3 kPa | 707.777
313.15 K, 8113.9 kPa | 709.449
313.15 K, 10024 kPa | 711.038
313.15 K, 12173 kPa | 712.791
313.15 K, 14170 kPa | 714.384
313.15 K, 16194 kPa | 715.964
313.15 K, 17956 kPa | 717.315
313.15 K, 20057 kPa | 718.889
313.15 K, 22191 kPa | 720.459
313.15 K, 24136 kPa | 721.862
313.15 K, 26139 kPa | 723.282
313.15 K, 28073 kPa | 724.629
313.15 K, 29972 kPa | 725.932
333.15 K, 102.84 kPa | 686.431
333.15 K, 1137.5 kPa | 687.521
333.15 K, 2113.9 kPa | 688.539
333.15 K, 4162.7 kPa | 690.632
333.15 K, 6145.3 kPa | 692.599
333.15 K, 8151.9 kPa | 694.535
333.15 K, 10024 kPa | 696.296
333.15 K, 12114 kPa | 698.208
333.15 K, 14127 kPa | 700.005
333.15 K, 15989 kPa | 701.627
333.15 K, 18027 kPa | 703.362
333.15 K, 19954 kPa | 704.977
333.15 K, 22112 kPa | 706.723
333.15 K, 24080 kPa | 708.292
333.15 K, 26038 kPa | 709.821
333.15 K, 28054 kPa | 711.366
333.15 K, 29912 kPa | 712.772
353.15 K, 97.13 kPa | 671.217
353.15 K, 2136.7 kPa | 672.617
353.15 K, 6141.9 kPa | 677.222
353.15 K, 8110.9 kPa | 679.378
353.15 K, 10054 kPa | 681.439
353.15 K, 12124 kPa | 683.57
353.15 K, 14144 kPa | 685.589
353.15 K, 15989 kPa | 687.385
353.15 K, 18011 kPa | 689.305
353.15 K, 20036 kPa | 691.174
353.15 K, 21991 kPa | 692.938
353.15 K, 23965 kPa | 694.678
353.15 K, 25968 kPa | 696.403
353.15 K, 27955 kPa | 698.078
353.15 K, 29939 kPa | 699.718
373.15 K, 102.37 kPa | 653.427
373.15 K, 1227.9 kPa | 655.018
373.15 K, 2148.9 kPa | 656.298
373.15 K, 4131.5 kPa | 658.968
373.15 K, 6127 kPa | 661.551
373.15 K, 8138.8 kPa | 664.058
373.15 K, 10022 kPa | 666.323
373.15 K, 12112 kPa | 668.749
373.15 K, 14119 kPa | 671.003
373.15 K, 16134 kPa | 673.197
373.15 K, 18104 kPa | 675.276
373.15 K, 20078 kPa | 677.302
373.15 K, 22064 kPa | 679.286
373.15 K, 23988 kPa | 681.158
373.15 K, 26124 kPa | 683.184
373.15 K, 28010 kPa | 684.93
373.15 K, 29905 kPa | 686.647
